Experimental data as given in patent US8658800B2 (priority 2010, dated 2014).

How the values were obtained:
adult Musca domestica = assay: Musca domestica test (MUSCDO); format: in vivo; details: treated sponge, after 2 days
Protocol: Musca domestica Test (MUSCDO)
(§1) Solvent: dimethyl sulphoxide
(§2) To produce a suitable preparation of active compound, 10 mg of active compound are mixed with 0.5 ml of dimethyl sulphoxide and the concentrate is diluted with water to the desired concentration.
Vessels containing a sponge treated with the active compound preparation of the desired concentration are populated with adult Musca domestica.
After 2 days, the kill in % is determined 100% means that all of the flies have been killed; 0% means that none of the flies have been killed.

[1] = tested on: caterpillars of the armyworm (Spodoptera frugiperda); assay: Spodoptera frugiperda test (SPODFR spray treatment); format: in vivo; details: foliar, 168 h, 100 g/ha, sprayed maize leaf discs, after 7 days, read-out: activity (kill of caterpillars)
Protocol: Spodoptera frugiperda Test (SPODFR Spray Treatment)
Solvents: 78.0 parts by weight of acetone
(§3) • 1.5 parts by weight of dimethylformamide Emulsifier: 0.5 part by weight of alkylaryl polyglycol ether
(§4) To produce a suitable preparation of active compound, 1 part by weight of active compound is mixed with the stated amount of solvents and emulsifier, and the concentrate is diluted with emulsifier-containing water to the desired concentration.
Discs of maize leaves (Zea mays) are sprayed with an active compound preparation of the desired concentration and, after drying, populated with caterpillars of the armyworm (Spodoptera frugiperda).
After 7 days, the effect in % is determined. 100% means that all caterpillars have been killed; 0% means that none of the caterpillars have been killed.

Boophilus microplus = Boophilus microplus test (BOOPMI injection); format: in vivo; details: 10 μg/animal, injection into the abdomen, after 7 days
Protocol: Boophilus microplus Test (BOOPMI Injection)
as §1
To produce a suitable preparation of active compound, 10 mg of active compound are mixed with 0.5 ml of solvent and the concentrate is diluted with solvent to the desired concentration.
The active compound solution is injected into the abdomen (Boophilus microplus), and the animals are transferred into dishes and stored in a climate-controlled room. The activity is assessed by […] of fertile eggs.
After 7 days, the effect in % is determined 100% means that none of the ticks has laid any fertile eggs.

Lucilia cuprina larvae = assay: Lucilia cuprina test (LUCICU); format: in vivo; details: 100 ppm, treated horse meat, after 2 days
Protocol: Lucilia cuprina Test (LUCICU)
as §1, §2
Vessels containing horse meat treated with the active compound of the desired concentration are populated with about 20 Lucilia cuprina larvae.
After 2 days, the kill in % is determined 100% means that all of the larvae have been killed; 0% means that none of the larvae have been killed.

[2] = tested on: larvae of the mustard beetle (Phaedon cochleariae); assay: Phaedon test (PHAECO spray treatment); format: in vivo; details: 168 h, 100 g/ha, sprayed Chinese cabbage discs, after 7 days, read-out: activity (kill of beetle larvae)
Protocol: Phaedon Test ([…] Spray Treatment) Solvents: 78.0 parts by weight of acetone • • 1.5 parts by weight of dimethylformamide Emulsifier: 0.5 part by weight of alkylaryl polyglycol ether To produce a suitable preparation of active compound, 1 part by weight of active compound is mixed with the stated amount of solvents and emulsifier, and the concentrate is diluted with emulsifier-containing water to the desired concentration. Discs of Chinese cabbage (Brassica pekinensis) are sprayed with an active compound preparation of the desired concentration and, after drying, populated with larvae of the mustard beetle (Phaedon cochleariae).

[3] = logP by HPLC on reversed-phase columns (C 18), EEC Directive 79/831 Annex V.A8; format: physicochemical; details: reversed-phase C18 HPLC column; HPLC, reversed-phase C 18, acidic range pH 2.7, 0.1% aqueous formic acid/acetonitrile; read-out: log P
Protocol: The logP values reported in the table above and in the Preparation Examples were determined in accordance with EEC Directive 79/831 Annex V.A8 by HPLC (High Performance Liquid Chromatography) on reversed-phase columns (C 18), with the following methods:
The LC-MS determination in the acidic range is carried out at pH 2.7 using the mobile phases 0.1% aqueous formic acid and acetonitrile (contains 0.1% formic acid), linear gradient from 10% acetonitrile to 95% acetonitrile
Calibration was carried out using unbranched alkan-2-ones (having from 3 to 16 carbon atoms) with known logP values (the logP values were determined by the retention times using linear interpolation between two successive alkanones).

[4] = tested on: green peach aphid (Myzus persicae); assay: Myzus test (MYZUPE spray treatment); format: in vivo; details: 144 h, sprayed Chinese cabbage discs, after 6 days, read-out: activity (kill of aphids)
Protocol: Myzus Test (MYZUPE Spray Treatment)
Solvents: 78 parts by weight of acetone
as §3, §4
Discs of Chinese cabbage (Brassica pekinensis) infested by all stages of the green peach aphid (Myzus persicae) are sprayed with an active compound preparation of the desired concentration.
After 6 days, the effect in % is determined. 100% means that all of the aphids have been killed; 0% means that none of the aphids have been killed.

| Structure (SMILES) | efficacy (kill) (adult Musca domestica; 100 ppm) [%] | pest or weed control at 100 g/ha [1] [%] | activity (100% = none of the ticks has laid any fertile eggs) (Boophilus microplus) [%] | efficacy (kill) (Lucilia cuprina larvae) [%] | pest or weed control at 100 g/ha [2] [%] | chromatographic logP [3] | efficacy (kill) (adult Musca domestica; 20 ppm) [%] | pest or weed control at 100 g/ha [4] [%] |
| --- | --- | --- | --- | --- | --- | --- | --- | --- |
| Cc1cc(Cl)cc(C(=S)NC(C)(C)C)c1NC(=O)c1cc(Cn2nnc(C(F)(F)F)n2)nn1-c1ncccc1Cl [Compound 6] | 90 | 100 | 100 | 100 | 100 | 4.33 | – | – |
| CNC(=S)c1cc(Cl)cc(C)c1NC(=O)c1cc(Cn2nnc(C(F)(F)F)n2)nn1-c1ncccc1Cl [Compound 7] | – | 100 | 100 | 100 | 100 | 3.42 | 90 | 100 |
